The subject of data set [1] is human peripheral blood lymphocytes. Type of data set: cell-based. The following applies: alone, 3 h, IRI 9.0 mg/L, bleomycin 15 mg/L; for Total No. of Cells in Apoptosis / Total No. of Nonviable Cells: scored along with 4000 binucleated cells. An excerpt: While screening microscope preparations to determine trends in the levels of the main CBMN assay descriptors, nonviable cells were also simultaneously counted on the same slides. Their discrimination was based on the specific morphological features typical for apoptosis or necrosis. It is well known that the biological significance of these phenomena differs deeply, and that the determination of the predominant type of cell death represents a very important issue in each experimental setting.
For each experimental group, we also calculated the ratio between the recorded number of nonviable cells and the cells in apoptosis (Table 5). According to reference, a ratio ≤ 1 means a prevalence of apoptotic events that induce cell death, while a ratio > 1 indicates the acute toxicity of the tested substance that promotes necrosis.

The test system is the same in data set [2]. Description: CBMN cytome assay: lymphocyte proliferation (M1-M4, CBPI, RI). The conditions noted are these: alone, 3 h; IRI 9.0 mg/L, bleomycin 15 mg/L. Format: cell-based. The method, then: On the same slides, parameters of cell proliferation and cytotoxicity were also evaluated, in line with the OECD protocol.
For data set [3] the test system is unchanged. Description: CBMN cytome assay: micronuclei, nuclear buds, nucleoplasmic bridges. The conditions noted are these: alone, 3 h; IRI 9.0 mg/L, bleomycin 15 mg/L.
Method: The CBMN assay was performed in line with standard protocols [8, 23].
To collect the blood sample, lithium heparin-coated tubes were used (BD vacutainer® with LH 170 I.U., Becton Dickinson: BD-Plymouth PL6 78P, UK).
There were 15 experimental groups altogether. The same experimental design was applied in two independent trials, each of which had two replicate cultures per experimental group; therefore, four replicate cultures for every single experimental group were established.
To induce cell division prior to exposure to the test chemicals, lymphocytes were stimulated with the mitogen phytohemagglutinin (PHA). Cultures were kept in a humidified atmosphere of 5% CO2 at 37 °C.
They started 41 h after PHA stimulation and lasted for 3 h at 37 °C.
Upon completion of exposure, lymphocyte cultures were centrifuged at 100× g. […] This procedure was timed for the 44th hour of lymphocyte cultivation, which represents a critical point for adding of cytoB to hinder cytokinesis and obtain binucleated cells. All treated and control cultures were further maintained at 37 °C until the end of the 72nd hour of cultivation, according to the above-mentioned standard protocols.
The first step in the preparation of microscopic slides was harvesting of cells by centrifugation (100× g), followed by treatment with 0.075 mol/L potassium chloride and succeeded by centrifugation. The sediments of cells were repeatedly fixed with methanol/acetic acid (3:1 v/v) followed by centrifugation. The final lymphocyte suspension was pipetted onto clean microscope slides. For staining, 5% aqueous solution of Giemsa dye was used. Slides were screened using a light microscope at 1000× magnification. For morphological discrimination of micronuclei (MNi), nuclear buds (NBs), nucleoplasmic bridges (NPBs) and cells in apoptosis or necrosis, the criteria by Fenech et al. [25] and Fenech [23] were applied. To determine their frequencies, per experimental point, a total of 4 × 1000 binucleated (BN) cells were scored.
This value was first used to estimate the number of MNi required to reach a decrease and an increase considered significant at a 5% significance level.

Marks after values point to notes of the source that are not given here.

Take `CCc1c2c(nc3ccc(OC(=O)N4CCC(N5CCCCC5)CC4)cc13)-c1cc3c(c(=O)n1C2)COC(=O)[C@]3(O)CC` [Irinotecan, reference compound]: in data set [1], the “Total No. of Cells in Apoptosis” value was 42 and the “Total No. of Nonviable Cells” value is 76. In data set [2], the “% of Cells with 1 to 4 Nuclei M1” value is 43.1 ^↑ %, the “% of Cells with 1 to 4 Nuclei M2” value is reported as 52.9 ^↓ %, the “% of Cells with 1 to 4 Nuclei M3” value is listed as 2.0 ^↓ % and the “% of Cells with 1 to 4 Nuclei M4” value is 2.0 ^↓ %. Further, the CBPI in data set [2] stood at 1.609.

Consider Bleomycin [reference compound], for which, in data set [3], the “Distribution of BNMN Cells with 1 MN” value is listed as 65 *; the “Distribution of BNMN Cells with 2 MN” value is listed as 11 iri, g10+iri; the “Distribution of BNMN Cells with 3 MN” value worked out at 2; the “Distribution of BNMN Cells with 4 MN” value is reported as 1. In data set [3], the “Distribution of BNNB Cells with 1 NB” value is listed as 49 *; the “Distribution of BNNB Cells with 2 NB” value is 4 c,p1,p5,p10,g1, g5,g10, p1+iri, p5+iri, p10+iri, g5+iri, g10+iri; the “Distribution of BNNPB Cells with 1 NPB” value was 7 c,p1,p5,p10,g1, g5,g10, p1+iri, p5+iri, p10+iri, g1+iri, g5+iri, g10+iri; the “Distribution of BNNPB Cells with 2 NPB” value was determined as 0. In addition, in data set [3], the “Micronuclei (MNi) Mean (BNMN)1000 ± SD” value was 19.75 ± 3.77, the “Micronuclei (MNi) Mean (MNi)1000 ± SD” value is 24.25 ± 6.24, the “Micronuclei (MNi) Total (BNMN)4000” value is 79 * and the “Micronuclei (MNi) Total (MNi)4000” value is given as 97 *. In addition, in data set [3], the “Nuclear Buds (NBs) Mean (BNNB)1000 ± SD” value is 13.25 ± 0.96, the “Nuclear Buds (NBs) Mean (NBs)1000 ± SD” value is reported as 14.25 ± 0.50, the “Nuclear Buds (NBs) Total (BNNB)4000” value is given as 53 * and the “Nuclear Buds (NBs) Total (NBs)4000” value is recorded as 57 *. In data set [3], the “Nucleoplasmic Bridges (NPBs) Mean (BNNPB)1000 ± SD” value is on record as 1.75 ± 1.26 c,p1,p5,p10, g1,g5,g10, p1+iri, p5+iri, p10+iri, g1+iri, g5+iri, g10+iri; the “Nucleoplasmic Bridges (NPBs) Mean (NPBs)1000 ± SD” value is recorded as 1.75 ± 1.26 c,p1,p5,p10, g1,g5,g10, p1+iri, p5+iri, p10+iri, g1+iri, g5+iri, g10+iri; the “Nucleoplasmic Bridges (NPBs) Total (BNNPB)4000” value is listed as 7 c,p1,p5, p10,g1,g5,g10,p1+iri,p5+iri, p10+iri, g1+iri, g5+iri, g10+iri; the “Nucleoplasmic Bridges (NPBs) Total (NPBs)4000” value is reported as 7 c,p1,p5,p10,g1,g5,g10,p1+iri, p5+iri, p10+iri, g1+iri, g5+iri, g10+iri. For the same compound, in data set [1], the “Ratio (nonviable cells and cells in apoptosis)” value stood at 0.6; the “Total No. of Cells in Apoptosis” value was determined as 59; the “Total No. of Nonviable Cells” value came out at 100. In data set [2], the “% of Cells with 1 to 4 Nuclei M1” value is 45.5 ^↑ %, the “% of Cells with 1 to 4 Nuclei M2” value is recorded as 46.1 ^↓ %, the “% of Cells with 1 to 4 Nuclei M3” value amounted to 4.2% and the “% of Cells with 1 to 4 Nuclei M4” value is reported as 4.2 ^↓ %. Also, in data set [2], the CBPI worked out at 1.629 and the “Replication Index (%)” value turned out to be 64.0%.

The record behind these values is paper PMC11946679 (Toxics, 2025).
